According to ChEMBL document CHEMBL1150086, “New steroid acids from Antrodia cinnamomea, a fungal parasite of Cinnamomum micranthum” (J Nat Prod, 1995):
In brackets after ≈: the same amount, converted by molar mass.

Tested on: P388
Experiment: Cytotoxicity against mouse P388 cells after 72 hrs
Assay type: functional, cell-based
Details: P388, 72 h

Point of comparison: `C=C(CC[C@@H](C)[C@H]1CC[C@H]2C3=C(C(=O)[C@H](O)[C@]12C)[C@@]1(C)CC[C@@H](O)[C@@H](C)[C@@H]1CC3=O)C(C)C(=O)O` (stereo partly drawn) [ZHANKUIC ACID C], IC50 5.4 µg/mL (≈ 11.1 µM). Against it:
- CO[C@H](C(=O)[C@@H](O)[C@@H](C)O)[C@@H]1Cc2cc3cc(O[C@H]4C[C@@H](O[C@@H]5C[C@@H](O)[C@H](O)[C@@H](C)O5)[C@H](O)[C@@H](C)O4)c(C)c(O)c3c(O)c2C(=O)[C@H]1O[C@H]1C[C@@H](O[C@@H]2C[C@@H](O)[C@@H](O[C@@H]3C[C@](C)(O)[C@H](O)[C@@H](C)O3)[C@@H](C)O2)[C@H](O)[C@@H](C)O1 [PLICAMYCIN] — 90-fold lower, 0.06 µg/mL (≈ 0.0553 µM)
- C=C(CC[C@@H](C)[C@H]1CC[C@H]2C3=C(C(=O)C[C@]12C)[C@@]1(C)CCC(=O)[C@@H](C)[C@@H]1CC3=O)C(C)C(=O)O (stereo partly drawn) [ZHANKUIC ACID A] — 3-fold lower, 1.8 µg/mL (≈ 3.84 µM)
